Test results reported in US20240376163A1, “PEPTIDE FOR INHIBITING CALCINEURIN AND USE THEREOF” (Seoul National University R&DB Foundation, priority 2023, published 2024).

System: Jurkat T cells
Test: mRNA sequencing of activated Jurkat T cells
Assay type: cell-based, human
Settings: P+I

For `C=CC[C@@H]1/C=C(\C)C[C@H](C)C[C@H](OC)[C@H]2O[C@@](O)(C(=O)C(=O)N3CCCC[C@H]3C(=O)O[C@H](/C(C)=C/[C@@H]3CC[C@@H](O)[C@H](OC)C3)[C@H](C)[C@@H](O)CC1=O)[C@H](C)C[C@@H]2OC` [FK506, Tacrolimus, reference compound], the “ARHGEF6 FPKM” value was 35.366 FPKM, the “ASAP1 FPKM” value was 7.765 FPKM and the “ATG14 FPKM” value was 7.863 FPKM. The “ATP2B4 FPKM” value was 16.449 FPKM, the “ATXN1 FPKM” value was 1.798 FPKM and the “BACH2 FPKM” value was 29.7 FPKM. For the same molecule, the “BAI2 FPKM” value was 1.395 FPKM, the “BAIAP2-AS1 FPKM” value was 2.72 FPKM and the “BATF3 FPKM” value was 36.514 FPKM. The “BHLHE40 FPKM” value was 6.563 FPKM, the “BTG1 FPKM” value was 22.099 FPKM and the “C1QL1 FPKM” value was 1.444 FPKM. For the same molecule, the “C1orf233 FPKM” value was 0.79 FPKM, the “C3 FPKM” value was 0.489 FPKM and the “C9orf9 FPKM” value was 7.304 FPKM. For the same molecule, the “C10orf54 FPKM” value was 0.382 FPKM, the “C16orf46 FPKM” value was 2.655 FPKM and the “CASC15 FPKM” value was 4.027 FPKM. The “CBX4 FPKM” value was 12.478 FPKM, the “CBX6 FPKM” value was 42.006 FPKM and the “CCDC64 FPKM” value was 10.044 FPKM. For the same molecule, the “CCDC71L FPKM” value was 13.763 FPKM, the “CCL1 FPKM” value was 0 FPKM and the “CCL3L1 FPKM” value was 0 FPKM. For the same molecule, the “CCL4 FPKM” value was 0 FPKM, the “CCL4L1 FPKM” value was 0.087 FPKM and the “CCL4L2 FPKM” value was 0.087 FPKM. For the same molecule, the “CCND2 FPKM” value was 0.558 FPKM, the “CD1A FPKM” value was 4.589 FPKM and the “CD1C FPKM” value was 3.288 FPKM. For the same molecule, the “CD1D FPKM” value was 2.553 FPKM, the “CD27-AS1 FPKM” value was 5.11 FPKM and the “CD27 FPKM” value was 3.098 FPKM. The “CD55 FPKM” value was 6.015 FPKM, the “CD69 FPKM” value was 125.597 FPKM and the “CD83 FPKM” value was 35.907 FPKM. The “CDCA7 FPKM” value was 26.911 FPKM, the “CDT1 FPKM” value was 11.013 FPKM and the “CFD FPKM” value was 0.937 FPKM. The “CHI3L2 FPKM” value was 58.214 FPKM, the “CHRNA9 FPKM” value was 4.046 FPKM and the “CLEC2B FPKM” value was 60.911 FPKM. The “CNR2 FPKM” value was 0.674 FPKM, the “CORO2A FPKM” value was 1.862 FPKM and the “CRIM1 FPKM” value was 0.305 FPKM. The “CRTAM FPKM” value was 3.325 FPKM, the “CSRNP1 FPKM” value was 26.052 FPKM and the “CST7 FPKM” value was 2.338 FPKM. The “CTDSPL FPKM” value was 1.758 FPKM, the “CTTN FPKM” value was 11.037 FPKM and the “CXCL3 FPKM” value was 3.147 FPKM. The “CXCL9 FPKM” value was 0.839 FPKM, the “CXCL10 FPKM” value was 0.352 FPKM and the “CXCR3 FPKM” value was 0.503 FPKM. For the same molecule, the “CYB5RL FPKM” value was 1.807 FPKM, the “DFNA5 FPKM” value was 12.016 FPKM and the “DHFR FPKM” value was 7.656 FPKM. For the same molecule, the “DNAJB11 FPKM” value was 107.644 FPKM, the “DNAJC1 FPKM” value was 13.765 FPKM and the “DNPEP FPKM” value was 31.154 FPKM. For the same molecule, the “DOK2 FPKM” value was 27.372 FPKM, the “DPY19L2P2 FPKM” value was 2.937 FPKM and the “DPYSL2 FPKM” value was 11 FPKM. The “DTX3L FPKM” value was 48.022 FPKM, the “DUSP2 FPKM” value was 123.613 FPKM and the “DUSP5 FPKM” value was 116.404 FPKM. For the same molecule, the “E2F1 FPKM” value was 7.783 FPKM, the “E2F2 FPKM” value was 3.317 FPKM and the “EIF2AK3 FPKM” value was 9.332 FPKM. For the same molecule, the “ENC1 FPKM” value was 9.299 FPKM, the “ENHO FPKM” value was 1.746 FPKM and the “ENPP1 FPKM” value was 124.248 FPKM. For the same molecule, the “EPAS1 FPKM” value was 5.846 FPKM, the “EPHA3 FPKM” value was 2.019 FPKM and the “ERO1LB FPKM” value was 5.101 FPKM. The “ETV5 FPKM” value was 15.576 FPKM, the “EVI2A FPKM” value was 15.078 FPKM and the “FAM46C FPKM” value was 5.191 FPKM. For the same molecule, the “FAM111B FPKM” value was 5.291 FPKM, the “FASLG FPKM” value was 1.518 FPKM and the “FBXO34 FPKM” value was 14.612 FPKM. The “FMNL2 FPKM” value was 2.726 FPKM, the “FOS FPKM” value was 7.329 FPKM and the “FOXO1 FPKM” value was 1.77 FPKM. For the same molecule, the “FST FPKM” value was 2.244 FPKM, the “FURIN FPKM” value was 23.264 FPKM and the “FYB FPKM” value was 11.107 FPKM. The “GAMT FPKM” value was 10.915 FPKM, the “GBP1 FPKM” value was 70.024 FPKM and the “GBP2 FPKM” value was 27.591 FPKM. The “GBP3 FPKM” value was 69.945 FPKM, the “GBP4 FPKM” value was 4.384 FPKM and the “GBP5 FPKM” value was 197.514 FPKM. The “GDPD5 FPKM” value was 29.626 FPKM, the “GEM FPKM” value was 2.495 FPKM and the “GINS2 FPKM” value was 16.935 FPKM. For the same molecule, the “GLIPR2 FPKM” value was 15.84 FPKM, the “GNAQ FPKM” value was 21.057 FPKM and the “GNG2 FPKM” value was 25.67 FPKM. For the same molecule, the “GPR3 FPKM” value was 7.96 FPKM.
